SMILES strings stand for the structures.

The IC90 is the point of the concentration-response curve where the effect stands at 90%. A higher IC90 goes with a need for much substance.

Experiment [1] concerns the target T1, wild type HCV NS3/4A 1b protease enzyme (Hepatitis C virus genotype 1b, UniProt P26663).
T1 construct: 10× stocks of NS3/4A protease enzyme from Bioenza (Mountain View, Calif.); purchased Bioenza (Mountain View, Calif.)
Kind of experiment: HCV Protease FRET Assay (IC50_APP), wild type. Conditions: read-out: IC50_APP, WT; apparent IC50, wild type NS3/4A 1b. The format is biochemical. On the procedure: (§1) HCV Protease FRET Assay for WT and Mutated NS3/4A 1b Enzymes (IC50—APP).
(§2) The following protocol was used to generate “apparent” IC50 (IC50—APP) values as depicted in Table 6, below. […] 5 μL of each enzyme were added to Corning (#3575) 384-well, black, microtiter plates (Corning, N.Y.) after spotting a 0.5 μL volume of 50% DMSO and serially diluted compounds prepared in 50% DMSO. Protease reactions were immediately started after enzyme addition with the addition of 45 μL of the FRET substrate and monitored for 60-90 minutes at λex485/λem520 in a Synergy^4 plate reader from BioTek (Winooski, Vt.). At the conclusion of each assay, progress curves from each well were examined for linear reaction kinetics and fit statistics (R^2, 95% confidence intervals, absolute sum of squares).
(§3) The compound numbers correspond to the compound numbers in Table 3. […] ;

Experiment [2] addresses T2, D168A mutant of the HCV NS3/4A 1b protease enzyme (Hepatitis C virus genotype 1b, UniProt P26663, D1194A).
T2 construct: 10× stocks of NS3/4A protease enzyme from Bioenza (Mountain View, Calif.); purchased Bioenza (Mountain View, Calif.)
Kind of experiment: HCV Protease FRET Assay (IC50_APP), D168A mutant. The format is biochemical. Conditions: apparent IC50, D168A mutant; read-out: IC50_APP, HCV D168A. On the procedure: as §1, §2, §3

The test system of experiment [3] is HCV RNA replicon in cell line ET (luc-ubi-neo/ET), human Huh7 hepatoma. Put plainly: Method A: HCV RNA replicon antiviral assay (luciferase, ET cell line). The format is cell-based, Hepatitis C virus. Conditions: Hepatitis C virus, Huh-7, assay described in Example 22; for IC50: read-out: Replicon (IC50). On the procedure: The compounds were assayed to evaluate the antiviral activity and cytotoxicity of compounds in vitro using HCV RNA replicons. This assay used the cell line ET (luc-ubi-neo/ET), which is a human Huh7 hepatoma cell line that contains an HCV RNA replicon with a stable luciferase (Luc) reporter and three cell culture-adaptive mutations. […]
The ET cell line was grown in Dulbecco's modified essential media (DMEM), 10% fetal bovine serum (FBS), 1% penicillin-streptomycin (pen-strep), 1% glutamine, 250 μg/ml G418 in a 5% CO2 incubator at 37° C. All cell culture reagents were obtained from Mediatech (Manassas, Va.). Cells were trypsinized (1% trypsin:EDTA) and plated out at 5×10^3 cells/well in white 96-well assay plates (Costar) dedicated to cell number (cytotoxicity) or antiviral activity assessments. Drugs were added at six 3-fold concentrations each and the assay was run in DMEM, 5% FBS, 1% pen-strep, 1% glutamine. Human interferon alpha-2b (PBL Biolabs, New Brunswick, N.J.) was included in each run as a positive control compound. Cells were processed 72 hr post drug addition when the cells are still subconfluent. Antiviral activity was measured by analyzing replicon-derived luciferase activity using the Steady-Glo Luciferase Assay System (Promega, Madison, Wis.) according to manufacturer's instruction. The number of cells in each well was determined by CytoTox-1 reagent (Promega). Compound profile was derived by calculating applicable EC50 (effective concentration inhibiting virus replication by 50%), EC90 (effective concentration inhibiting virus replication by 90%), IC50 (concentration decreasing cell viability by 50%) and SI50 (selective index: […]) values.
On the technique in general: A replicon is a self-replicating genome or part of one, used to study replication in cells.

Experiment [4] deals with T3, A156T mutant of the HCV NS3/4A 1b protease enzyme (Hepatitis C virus genotype 1b, UniProt P26663, A1182T).
T3 construct: 10× stocks of NS3/4A protease enzyme from Bioenza (Mountain View, Calif.); purchased Bioenza (Mountain View, Calif.)
Kind of experiment: HCV Protease FRET Assay (IC50_APP), A156T mutant. The format is biochemical. Conditions: apparent IC50, A156T mutant; read-out: IC50_APP, HCV A156T. On the procedure:
as §1, §2, §3

As to `C=C[C@@H]1C[C@]1(NC(=O)[C@@H]1C[C@@H](Oc2cc(-c3ccccc3)nc3cc(OC)ccc23)CN1C(=O)C(CN(C)C(=O)C#CC)NC(=O)OC(C)(C)C)C(=O)NS(=O)(=O)c1ccccc1` (stereo in doubt) [Compound I-51, tert-butyl-(S)-1-((2S,4R)-4-(7-methoxy-2-phenylquinolin-4-yloxy)-2-((1R,2S)-1-(phenylsulfonylcarbamoyl)-2-vinylcyclopropylcarbamoyl)pyrrolidin-1-yl)-3-(N-methylbut-2-ynamido)-1-oxopropan-2-ylcarbamate], the IC50 fell in the range of 10 to 100 nM in experiment [1] and 1000 to 10000 nM in experiment [2].
As to `C=C[C@@H]1C[C@]1(NC(=O)[C@@H]1C[C@@H](Oc2cc(-c3ccccc3)nc3cc(OC)ccc23)CN1C(=O)C(CN(C)C(=O)C(=C)C(F)(F)F)NC(=O)OC(C)(C)C)C(=O)NS(=O)(=O)c1ccccc1` (stereo in doubt) [Compound I-53, tert-butyl-(S)-1-((2S,4R)-4-(7-methoxy-2-phenylquinolin-4-yloxy)-2-((1R,2S)-1-(phenylsulfonylcarbamoyl)-2-vinylcyclopropylcarbamoyl)pyrrolidin-1-yl)-3-(N-methyl-2-(trifluoromethyl)acrylamido)-1-oxopropan-2-ylcarbamate], the IC50 was less than 10 nM in experiment [1], 100 to 1000 nM in experiment [2], 100 to 1000 nM in experiment [3] and 10 to 100 nM in experiment [4]. In experiment [3], this molecule displayed an IC90 of more than 10000 nM.
For `C=CC(=O)N(C)C[C@H](NC(=O)OC(C)(C)C)C(=O)N1C[C@H](Oc2cc(-c3ccccc3)nc3cc(OC)ccc23)C[C@H]1C(=O)N[C@]1(C(=O)NS(=O)(=O)C2CC2)C[C@H]1C=C` [Compound I-52, tert-butyl-(S)-1-((2S,4R)-2-((1R,2S)-1-(cyclopropylsulfonylcarbamoyl)-2-vinylcyclopropylcarbamoyl)-4-(7-methoxy-2-phenylquinolin-4-yloxy)pyrrolidin-1-yl)-3-(N-methylacrylamido)-1-oxopropan-2-ylcarbamate], the IC50 is less than 10 nM in experiment [1], 1000 to 10000 nM in experiment [2], less than 10 nM in experiment [3] and 100 to 1000 nM in experiment [4]. This molecule yielded a 90% effect concentration (IC90) in experiment [3] of less than 10 nM.
On to `C=CC(=O)NC[C@H](NC(=O)OC1CCCC1)C(=O)N1C[C@H](Oc2cc(-c3ccccc3)nc3cc(OC)ccc23)C[C@H]1C(=O)N[C@]1(C(=O)NS(=O)(=O)C2CC2)C[C@H]1C=C` [Compound I-55, Cyclopentyl-(S)-3-acrylamido-1-((2S,4R)-2-((1R,2S)-1-(cyclopropylsulfonylcarbamoyl)-2-vinylcyclopropylcarbamoyl)-4-(7-methoxy-2-phenylquinolin-4-yloxy)pyrrolidin-1-yl)-1-oxopropan-2-ylcarbamate], for which the IC50 in experiment [1] is less than 10 nM; in experiment [2], 100 to 1000 nM; in experiment [3] it was less than 10 nM; in experiment [4], 100 to 1000 nM. This molecule had an IC90 in experiment [3] of 100 to 1000 nM.
As to `C=CC(=O)N[C@@H](C(=O)N1C[C@H](Oc2cc(-c3ccccc3)nc3cc(OC)ccc23)C[C@H]1C(=O)N[C@]1(C(=O)NS(=O)(=O)C2CC2)C[C@H]1C=C)C(C)C` [Compound I-56, (2S,4R)-1-((R)-2-acrylamido-3-methylbutanoyl)-N-((1R,2S)-1-(cyclopropylsulfonylcarbamoyl)-2-vinylcyclopropyl)-4-(7-methoxy-2-phenylquinolin-4-yloxy)pyrrolidine-2-carboxamide], the IC50 was less than 10 nM in experiment [1], 100 to 1000 nM in experiment [2], less than 10 nM in experiment [3] and 10 to 100 nM in experiment [4]. The molecule also came in with an IC90 in experiment [3] of 10 to 100 nM.
`C=C[C@@H]1C[C@]1(NC(=O)[C@@H]1C[C@@H](Oc2cc(-c3ccccc3)nc3cc(OC)ccc23)CN1C(=O)CNC(=O)/C=C/C)C(=O)NS(=O)(=O)C1CC1` [Compound I-57, (2S,4R)-1-(2-(E)-but-2-enamidoacetyl)-N-((1R,2S)-1-(cyclopropylsulfonylcarbamoyl)-2-vinylcyclopropyl)-4-(7-methoxy-2-phenylquinolin-4-yloxy)pyrrolidine-2-carboxamide]: the values for the IC50 in experiment [1] and in experiment [2] were 100 to 1000 nM and 1000 to 10000 nM, respectively.
In the case of `C=CC(=O)N(C)C[C@H](NC(=O)c1cnccn1)C(=O)N1C[C@H](Oc2cc(-c3ccccc3)nc3cc(OC)ccc23)C[C@H]1C(=O)N[C@]1(C(=O)NS(=O)(=O)C2CC2)C[C@H]1C=C` [Compound I-58, (S)—N-3-(N-methyl)acrylamido-1-((2S,4R)-2-((1R,2S)-1-(cyclopropylsulfonylcarbamoyl)-2-vinylcyclopropylcarbamoyl)-4-(7-methoxy-2-phenylquinolin-4-yloxy)pyrrolidin-1-yl)-1-oxo-2-propylpyrazinecarboxamide], the IC50 in experiment [1] was in the range of 10 to 100 nM; in experiment [2] it was 1000 to 10000 nM; in experiment [3], 100 to 1000 nM; in experiment [4], 1000 to 10000 nM. Moreover, the IC90 in experiment [3] lay in the range of 1000 to 10000 nM.
Regarding `C=C[C@@H]1C[C@]1(NC(=O)[C@@H]1C[C@@H](Oc2cc(-c3ccccc3)nc3cc(OC)ccc23)CN1C(=O)[C@H](Cc1ccc(F)c([N+](=O)[O-])c1)NC(=O)OC(C)(C)C)C(=O)NS(=O)(=O)c1ccccc1` [Compound I-59, tert-butyl-(S)-1-((2S,4R)-4-(7-methoxy-2-phenylquinolin-4-yloxy)-2-((1R,2S)-1-(phenylsulfonylcarbamoyl)-2-vinylcyclopropylcarbamoyl)pyrrolidin-1-yl)-3-(4-fluoro-3-nitrophenyl)-1-oxopropan-2-ylcarbamate], the IC50 was less than 10 nM in experiment [1], 1000 to 10000 nM in experiment [2], 100 to 1000 nM in experiment [3] and 1000 to 10000 nM in experiment [4]. In addition, the IC90 in experiment [3] fell in the range of 1000 to 10000 nM.
On to `C=C[C@@H]1C[C@]1(NC(=O)[C@@H]1C[C@@H](Oc2cc(-c3ccccc3)nc3cc(OC)ccc23)CN1C(=O)CNC(=O)c1ccc([N+](=O)[O-])cc1F)C(=O)NS(=O)(=O)c1ccccc1` [Compound I-63, (2S,4R)-1-(2-fluoro-4-nitrobenzamidoacetyl)-N-((1R,2S)-1-(phenylsulfonylcarbamoyl)-2-vinylcyclopropyl)-4-(7-methoxy-2-phenylquinolin-4-yloxy)pyrrolidine-2-carboxamide], for which the results for the IC50 in experiment [1], in experiment [2] and in experiment [4] were 100 to 1000 nM, 1000 to 10000 nM and 1000 to 10000 nM, respectively.
In the case of `C=CC(=O)N[C@@H](C(=O)N1C[C@H](Oc2cc(-c3ccccc3)nc3cc(OC)ccc23)C[C@H]1C(=O)N[C@]1(C(=O)NS(=O)(=O)C2CC2)C[C@H]1C=C)C(C)(C)C` [Compound I-65, (2S,4R)-1-((R)-2-acrylamido-3,3-dimethylbutanoyl)-N-((1R,2S)-1-(cyclopropylsulfonylcarbamoyl)-2-vinylcyclopropyl)-4-(7-methoxy-2-phenylquinolin-4-yloxy)pyrrolidine-2-carboxamide], the IC50 in experiment [1] is 100 to 1000 nM; in experiment [2] it was 1000 to 10000 nM; in experiment [4], 1000 to 10000 nM.
In the case of `C=C[C@@H]1C[C@]1(NC(=O)[C@@H]1C[C@@H](Oc2cc(-c3ccccc3)nc3cc(OC)ccc23)CN1C(=O)[C@H](CCC(=O)N[C@H]1COC1=O)NC(=O)OC(C)(C)C)C(=O)NS(=O)(=O)C1CC1` [Compound I-69, t-butyl-(2S)-1-((2S,4R)-2-((1R,2S)-1-(cyclopropylsulfonylcarbamoyl)-2-vinylcyclopropylcarbamoyl)-4-(7-methoxy-2-phenylquinolin-4-yloxy)pyrrolidin-1-yl)-5-((3S)-2-oxooxetan-3-ylamino)-1,5-dioxopentan-2-ylcarbamate], the IC50 in experiment [1] was less than 10 nM; in experiment [2], 100 to 1000 nM; in experiment [4], 100 to 1000 nM.
